Test results as given in ChEMBL document CHEMBL4311957, “Recent advances in natural antifungal flavonoids and their derivatives” (Bioorg Med Chem Lett, 2019).

Columns and labels:
Format in all cases: functional
Candida albicans [1] = assay: Antifungal activity against Candida albicans after 24 hrs by broth dilution method
[2] = system: Trichophyton mentagrophytes; assay: Antifungal activity against Trichophyton mentagrophytes after 24 hrs by broth dilution method
Aspergillus fumigatus [3] = assay: Fungicidal activity against Aspergillus fumigatus after 24 hrs by broth dilution method
[4] = system: Trichophyton mentagrophytes; assay: Fungicidal activity against Trichophyton mentagrophytes after 24 hrs by broth dilution method
Nakaseomyces glabratus [5] = assay: Fungicidal activity against FLC-resistant Candida glabrata DSM 11226
Yarrowia lipolytica [6] = assay: Antifungal activity against FLC-resistant Candida lipolytica KKP 332
Candida dubliniensis [7] = assay: Fungicidal activity against FLC-resistant Candida dubliniensis CBS 7987
Candida albicans [8] = assay: Fungicidal activity against FLC-resistant Candida stellatoidea CBS 1905
Candida parapsilosis [9] = assay: Antifungal activity against FLC-resistant Candida parapsilosis DSM 5784; settings: Lodderomyces parapsilosis
Kluyveromyces marxianus [10] = assay: Fungicidal activity against FLC-resistant Candida pseudotropicalis KKP 324
Pichia kudriavzevii [11] = assay: Fungicidal activity against FLC-resistant Candida krusei DSM 6128
Candida parapsilosis [12] = assay: Fungicidal activity against FLC-resistant Candida parapsilosis DSM 5784; settings: Lodderomyces parapsilosis
Candida albicans [13] = assay: Antifungal activity against FLC-resistant Candida stellatoidea CBS 1905
[14] = system: Meyerozyma guilliermondii; assay: Antifungal activity against FLC-resistant Candida guilliermondii DSM 11947
Candida tropicalis [15] = assay: Fungicidal activity against FLC-resistant Candida tropicalis KKP 334
[16] = system: Meyerozyma guilliermondii; assay: Fungicidal activity against FLC-resistant Candida guilliermondii DSM 11947
Clavispora lusitaniae [17] = assay: Antifungal activity against FLC-resistant Candida lusitaniae DSM 70102
[18] = Fungicidal activity against FLC-resistant Candida arborea KKP 319
[19] = Antifungal activity against FLC-resistant Candida arborea KKP 319
Yarrowia lipolytica [20] = assay: Fungicidal activity against FLC-resistant Candida lipolytica KKP 332
Candida tropicalis [21] = assay: Antifungal activity against FLC-resistant Candida tropicalis KKP 334
Candida dubliniensis [22] = assay: Antifungal activity against FLC-resistant Candida dubliniensis CBS 7987
Pichia kudriavzevii [23] = assay: Antifungal activity against FLC-resistant Candida krusei DSM 6128
Kluyveromyces marxianus [24] = assay: Antifungal activity against FLC-resistant Candida pseudotropicalis KKP 324
Candida albicans [25] = assay: Antifungal activity against FLC-resistant Candida albicans ATCC 10231
Clavispora lusitaniae [26] = assay: Fungicidal activity against FLC-resistant Candida lusitaniae DSM 70102
Nakaseomyces glabratus [27] = assay: Antifungal activity against FLC-resistant Candida glabrata DSM 11226
Candida albicans [28] = assay: Fungicidal activity against FLC-resistant Candida albicans ATCC 10231
[29] = system: Trichophyton mentagrophytes; assay: Antifungal activity against Trichophyton mentagrophytes after 72 to 120 hrs
Nakaseomyces glabratus [30] = assay: Antifungal activity against Candida glabrata 20/I after 24 to 48 hrs
Candida parapsilosis [31] = assay: Antifungal activity against Candida parapsilosis ATCC 22019 after 24 hrs; settings: Lodderomyces parapsilosis, ATCC 22019, 24 h
Pichia kudriavzevii [32] = assay: Antifungal activity against Candida krusei ATCC 6258 after 24 hrs; settings: ATCC 6258, 24 h
Candida tropicalis [33] = assay: Antifungal activity against Candida tropicalis 156 after 24 to 48 hrs
Aspergillus fumigatus [34] = assay: Antifungal activity against Aspergillus fumigatus after 24 to 48 hrs
Candida albicans [35] = assay: Antifungal activity against Candida albicans ATCC 24433 after 24 hrs; settings: ATCC 24433, 24 h
Nakaseomyces glabratus [36] = assay: Antifungal activity against Candida glabrata ATCC 90030 after 24 hrs; settings: ATCC 90030, 24 h
Pichia kudriavzevii [37] = assay: Antifungal activity against Candida krusei E 28 after 24 to 48 hrs
Candida albicans [38] = assay: Antifungal activity against Candida albicans ATCC 44859 after 24 to 48 hrs
Aspergillus fumigatus [39] = assay: Antifungal activity against Aspergillus fumigatus after 24 hrs by broth dilution method

O=C1NC(=O)C(C(=O)/C=C/c2coc3ccccc3c2=O)C(=O)N1
12.5 µg/mL: MIC (Candida albicans [1]) | MIC [2]
50 µg/mL: MFC (Aspergillus fumigatus [3]) | MFC [4]

COc1ccc2oc(=O)sc2c1C(=O)/C=C/c1ccc(OCCN(C)C)cc1
8 to 32 µg/mL: MIC (Nakaseomyces glabratus [5]) | MIC (Candida dubliniensis [7]) | MIC (Candida albicans [8]) | MIC (Kluyveromyces marxianus [10]) | MIC (Pichia kudriavzevii [11]) | MIC (Candida parapsilosis [12]) | MIC (Candida tropicalis [15]) | MIC [16] | MIC [18] | MIC (Yarrowia lipolytica [20]) | MIC (Clavispora lusitaniae [26]) | MIC (Candida albicans [28])
1 to 16 µg/mL: MIC (Yarrowia lipolytica [6]) | MIC (Candida parapsilosis [9]) | MIC (Candida albicans [13]) | MIC [14] | MIC (Clavispora lusitaniae [17]) | MIC [19] | MIC (Candida tropicalis [21]) | MIC (Candida dubliniensis [22]) | MIC (Pichia kudriavzevii [23]) | MIC (Kluyveromyces marxianus [24]) | MIC (Candida albicans [25]) | MIC (Nakaseomyces glabratus [27])

O=C(/C=C/c1ccccc1[N+](=O)[O-])c1cnccn1
7.81 to 500 µg/mL: MIC (Candida tropicalis [33]) | MIC (Aspergillus fumigatus [34])
7.81 to 41.6 µg/mL: MIC (Nakaseomyces glabratus [30])
7.81 µg/mL: MIC (Candida albicans [38])
7.81 to 125 µg/mL: MIC (Pichia kudriavzevii [37])
6.51 to 31.2 µg/mL: MIC [29]
0.78 to 3.12 µg/mL: MIC (Candida parapsilosis [31]) | MIC (Pichia kudriavzevii [32]) | MIC (Candida albicans [35]) | MIC (Nakaseomyces glabratus [36])

Cc1cc(O)c(C(=O)/C=C/c2coc3ccccc3c2=O)c(=O)o1
50 µg/mL: MFC (Aspergillus fumigatus [39])
12.5 µg/mL: MIC (Candida albicans [1])
